Results as given in ChEMBL document CHEMBL2413072, “Synthesis and in vitro anticancer studies of novel C-2 arylidene congeners of lantadenes” (2013).

Assays:
Assay type in all cases: functional
OVCAR-5 = assay: Growth inhibition of human OVCAR5 cells assessed as cell growth at 10^-8 M by sulforhodamine B assay; details: read-out: Activity
T47D = assay: Growth inhibition of human T47D cells assessed as cell growth at 10^-8 M by sulforhodamine B assay; details: read-out: Activity
HL-60(TB) [1] = assay: Growth inhibition of human HL-60(TB) cells assessed as cell growth at 10^-8 M by sulforhodamine B assay; details: read-out: Activity
MCF7 = assay: Growth inhibition of human MCF7 cells by sulforhodamine B assay
COLO 205 = assay: Growth inhibition of human COLO205 cells assessed as cell growth at 10^-4 M by sulforhodamine B assay; details: read-out: Activity
SN12C = assay: Growth inhibition of human SN12C cells assessed as cell growth at 10^-7 M by sulforhodamine B assay; details: read-out: Activity
OVCAR-3 = assay: Growth inhibition of human OVCAR3 cells assessed as cell growth at 10^-7 M by sulforhodamine B assay; details: read-out: Activity
A549 = assay: Growth inhibition of human A549/ATCC cells assessed as cell growth at 10^-4 M by sulforhodamine B assay; details: read-out: Activity
SNB-75 = assay: Growth inhibition of human SNB75 cells assessed as cell growth at 10^-4 M by sulforhodamine B assay; details: read-out: Activity
RPMI-8226 = assay: Growth inhibition of human RPMI8226 cells assessed as cell growth at 10^-8 M by sulforhodamine B assay; details: read-out: Activity
SK-MEL-5 = assay: Growth inhibition of human SK-MEL-5 cells assessed as cell growth at 10^-7 M by sulforhodamine B assay; details: read-out: Activity
MDA-MB-435 = assay: Growth inhibition of human MDA-MB-435 cells assessed as cell growth at 10^-7 M by sulforhodamine B assay; details: read-out: Activity
[2] = Growth inhibition of human NCI-ADR-RES cells assessed as cell growth at 10^-8 M by sulforhodamine B assay; details: read-out: Activity
SK-MEL-28 = assay: Growth inhibition of human SK-MEL-28 cells assessed as cell growth at 10^-6 M by sulforhodamine B assay; details: read-out: Activity
SNB-19 = assay: Growth inhibition of human SNB19 cells assessed as cell growth at 10^-4 M by sulforhodamine B assay; details: read-out: Activity
KM12 [3] = assay: Growth inhibition of human KM12 cells assessed as cell growth at 10^-6 M by sulforhodamine B assay; details: read-out: Activity
SF-295 = assay: Growth inhibition of human SF295 cells assessed as cell growth at 10^-7 M by sulforhodamine B assay; details: read-out: Activity
MOLT-4 = assay: Growth inhibition of human MOLT4 cells assessed as cell growth at 10^-4 M by sulforhodamine B assay; details: read-out: Activity
IGROV-1 = assay: Growth inhibition of human IGROV1 cells assessed as cell growth at 10^-4 M by sulforhodamine B assay; details: read-out: Activity
[4] = Growth inhibition of human NCI-ADR-RES cells by sulforhodamine B assay
HL-60(TB) [5] = assay: Growth inhibition of human HL-60(TB) cells by sulforhodamine B assay
NCI-H322M = assay: Growth inhibition of human NCI-H322M cells assessed as cell growth at 10^-6 M by sulforhodamine B assay; details: read-out: Activity
KM12 [6] = assay: Growth inhibition of human KM12 cells assessed as cell growth at 10^-7 M by sulforhodamine B assay; details: read-out: Activity
ACHN = assay: Growth inhibition of human ACHN cells assessed as cell growth at 10^-7 M by sulforhodamine B assay; details: read-out: Activity
HT-29 [7] = assay: Growth inhibition of human HT-29 cells assessed as cell growth at 10^-4 M by sulforhodamine B assay; details: read-out: Activity
HT-29 [8] = assay: Growth inhibition of human HT-29 cells assessed as cell growth at 10^-8 M by sulforhodamine B assay; details: read-out: Activity
SF-539 = assay: Growth inhibition of human SF539 cells assessed as cell growth at 10^-8 M by sulforhodamine B assay; details: read-out: Activity
DU-145 = assay: Growth inhibition of human DU145 cells assessed as cell growth at 10^-4 M by sulforhodamine B assay; details: read-out: Activity
SK-MEL-2 = assay: Growth inhibition of human SK-MEL-2 cells assessed as cell growth at 10^-8 M by sulforhodamine B assay; details: read-out: Activity
NCI-H460 [9] = assay: Growth inhibition of human NCI-H460 cells assessed as cell growth at 10^-7 M by sulforhodamine B assay; details: read-out: Activity
Malme-3M = assay: Growth inhibition of human MALME-3M cells assessed as cell growth at 10^-7 M by sulforhodamine B assay; details: read-out: Activity
NCI-H460 [10] = assay: Growth inhibition of human NCI-H460 cells assessed as cell growth at 10^-8 M by sulforhodamine B assay; details: read-out: Activity
OVCAR-8 = assay: Growth inhibition of human OVCAR8 cells assessed as cell growth at 10^-7 M by sulforhodamine B assay; details: read-out: Activity
PC-3 = assay: Growth inhibition of human PC3 cells assessed as cell growth at 10^-8 M by sulforhodamine B assay; details: read-out: Activity
LOX IMVI = assay: Growth inhibition of human LOXIMVI cells assessed as cell growth at 10^-4 M by sulforhodamine B assay; details: read-out: Activity
[11] = read-out: LC50 (the source's name)
[12] = read-out: pLC50 (the source's name) (converted)

C/C=C(/C)C(=O)O[C@@H]1CC(C)(C)C[C@H]2C3=CC[C@@H]4[C@@]5(C)CCC(=O)C(C)(C)[C@@H]5CC[C@@]4(C)[C@]3(C)CC[C@@]12C(=O)O [LANTADENE A]
growth at 0.01 µM (OVCAR-5): 101% | growth at 0.01 µM (T47D): 99% | growth at 0.01 µM (HL-60(TB) [1]): 100% | GI50 (MCF7; read-out: GI50): 3.6 µM | CC50 (MCF7; [11]): > 100 µM | TGI (MCF7; read-out: TGI): > 100 µM | GI50 (MCF7; read-out: pGI50 (converted)): 3.63 µM | CC50 (MCF7; [12]): > 100 µM | TGI (MCF7; read-out: pTGI (converted)): > 100 µM | growth at 100 µM (COLO 205): -51% | growth at 0.1 µM (SN12C): 95% | growth at 0.1 µM (OVCAR-3): 109% | growth at 100 µM (A549): 10% | growth at 100 µM (SNB-75): 33% | growth at 0.01 µM (RPMI-8226): 102% | growth at 0.1 µM (SK-MEL-5): 83% | growth at 0.1 µM (MDA-MB-435): 95% | growth at 0.01 µM [2]: 104% | growth at 1 µM (SK-MEL-28): 95% | growth at 100 µM (SNB-19): 23% | growth at 1 µM (KM12 [3]): 84% | growth at 0.1 µM (SF-295): 88% | growth at 100 µM (MOLT-4): 2% | growth at 100 µM (IGROV-1): 30% | GI50 ([4]; read-out: GI50): 5.12 µM | CC50 [4, 11]: > 100 µM | TGI ([4]; read-out: TGI): > 100 µM | GI50 ([4]; read-out: pGI50 (converted)): 5.13 µM | CC50 [4, 12]: > 100 µM | TGI ([4]; read-out: pTGI (converted)): > 100 µM | GI50 (HL-60(TB) [5]; read-out: GI50): 1.87 µM | CC50 (HL-60(TB) [5]; [11]): > 100 µM | TGI (HL-60(TB) [5]; read-out: TGI): 5.26 µM | GI50 (HL-60(TB) [5]; read-out: pGI50 (converted)): 1.86 µM | CC50 (HL-60(TB) [5]; [12]): > 100 µM | TGI (HL-60(TB) [5]; read-out: pTGI (converted)): 5.25 µM | growth at 1 µM (NCI-H322M): 90% | growth at 0.1 µM (KM12 [6]): 102% | growth at 0.1 µM (ACHN): 107% | growth at 100 µM (HT-29 [7]): 19% | growth at 0.01 µM (HT-29 [8]): 99% | growth at 0.01 µM (SF-539): 102% | growth at 100 µM (DU-145): 29% | growth at 0.01 µM (SK-MEL-2): 111% | growth at 0.1 µM (NCI-H460 [9]): 98% | growth at 0.1 µM (Malme-3M): 96% | growth at 0.01 µM (NCI-H460 [10]): 104% | growth at 0.1 µM (OVCAR-8): 98% | growth at 0.01 µM (PC-3): 93% | growth at 100 µM (LOX IMVI): 33%

CC(C)=CC(=O)O[C@@H]1CC(C)(C)C[C@H]2C3=CC[C@@H]4[C@@]5(C)CC[C@H](O)C(C)(C)[C@@H]5CC[C@@]4(C)[C@]3(C)CC[C@@]12C(=O)O [Reduced Lantadene B]
growth at 0.01 µM (OVCAR-5): 95% | growth at 0.01 µM (T47D): 93% | growth at 0.01 µM (HL-60(TB) [1]): 101% | GI50 (MCF7; read-out: GI50): 6.18 µM | CC50 (MCF7; [11]): > 100 µM | TGI (MCF7; read-out: TGI): 30.3 µM | GI50 (MCF7; read-out: pGI50 (converted)): 6.17 µM | CC50 (MCF7; [12]): > 100 µM | TGI (MCF7; read-out: pTGI (converted)): 30.2 µM | growth at 100 µM (COLO 205): -52% | growth at 0.1 µM (SN12C): 96% | growth at 0.1 µM (OVCAR-3): 105% | growth at 100 µM (A549): -56% | growth at 100 µM (SNB-75): -38% | growth at 0.01 µM (RPMI-8226): 100% | growth at 0.1 µM (SK-MEL-5): 91% | growth at 0.1 µM (MDA-MB-435): 97% | growth at 0.01 µM [2]: 107% | growth at 1 µM (SK-MEL-28): 97% | growth at 100 µM (SNB-19): -62% | growth at 1 µM (KM12 [3]): 48% | growth at 0.1 µM (SF-295): 80% | growth at 100 µM (MOLT-4): -43% | growth at 100 µM (IGROV-1): -43% | GI50 ([4]; read-out: GI50): 5.83 µM | CC50 [4, 11]: > 100 µM | TGI ([4]; read-out: TGI): 35.9 µM | GI50 ([4]; read-out: pGI50 (converted)): 5.89 µM | CC50 [4, 12]: > 100 µM | TGI ([4]; read-out: pTGI (converted)): 36.3 µM | GI50 (HL-60(TB) [5]; read-out: GI50): 2.52 µM | CC50 (HL-60(TB) [5]; [11]): 86.3 µM | TGI (HL-60(TB) [5]; read-out: TGI): 6.86 µM | GI50 (HL-60(TB) [5]; read-out: pGI50 (converted)): 2.51 µM | CC50 (HL-60(TB) [5]; [12]): 87.1 µM | TGI (HL-60(TB) [5]; read-out: pTGI (converted)): 6.92 µM | growth at 1 µM (NCI-H322M): 94% | growth at 0.1 µM (KM12 [6]): 79% | growth at 0.1 µM (ACHN): 93% | growth at 100 µM (HT-29 [7]): -36% | growth at 0.01 µM (HT-29 [8]): 91% | growth at 0.01 µM (SF-539): 96% | growth at 100 µM (DU-145): -75% | growth at 0.01 µM (SK-MEL-2): 97% | growth at 0.1 µM (NCI-H460 [9]): 100% | growth at 0.1 µM (Malme-3M): 94% | growth at 0.01 µM (NCI-H460 [10]): 105% | growth at 0.1 µM (OVCAR-8): 101% | growth at 0.01 µM (PC-3): 97% | growth at 100 µM (LOX IMVI): -35%
